Assay results taken from patent US4357324A, “Prodrug derivatives of 9β-D-arabinofuranosyl-2-fluoroadenine” (The United States of America as represented by the …, priority 1981, dated 1982).

Key:
[1] = in words; second component of the two-drug combination; cited from earlier work
L1210 Leukemia = assay: Activity against L1210 leukemia, 10^5 L1210 cell IP (Table IV); type: in vivo, mice; details: for Lifespan: untreated control 8; for lifespan and cures of mice implanted with leukemia L1210 cells: FIGS. 1 and 3
Experimental: (§1) These higher levels of the active agent that last for longer periods of time allow effective treatment with these drugs given once a day for nine days (see FIGS. 1, 2 and 3).
(§2) It has been noted that the antitumor activity of 9-β-D-arabinofuranosyl adenine (ara-A) is enhanced by the incorporation of a fluorine atom at the 2-carbon. […] To overcome this difficulty two water-soluble derivatives, the 5'-formate and the 5'-phosphate, were prepared.

L1210 cells = assay: Nanomoles of triphosphate per gm L1210 cells after treatment (Table I); type: in vivo, mice; details: for levels of F-ara-A triphosphate in leukemic cells versus F-ara-A itself: mouse, in vivo
Experimental: as §1, §2

L1210/0 Leukemia = assay: Activity against L1210/0 leukemia, 10^5 IP (Tables II and III); type: in vivo, mice
Experimental: as §1
Treatment: IP; QD 1-9 Days*
*2'dCF Given 30 Minutes Before araA
as §2

[2] = Water solubility (statement); type: physicochemical; details: in words
[3] = Conversion to the parent drug in vivo (statement); details: in words
[4] = Table IV, 375 mg/kg/day, q3h, days 1,5,9
[5] = Table II, 150 mg/kg/dose, IP, QD 1-9 days
[6] = mice implanted with leukemia L1210 cells
[7] = Table IV, 219 mg/kg/day, qd 1-9

SMILES: OC[C@H]1O[C@@H](n2cnc3c2NC=NC[C@H]3O)C[C@@H]1O [2'-dCF]
- toxicity [1]: clear but not completely defined toxicity

SMILES: Nc1ncnc2c1ncn2[C@@H]1O[C@H](COP(=O)(O)O)[C@@H](O)[C@@H]1O [Ara-AMP, 9-β-D-arabinofuranosyl adenine 5'-phosphate, reference compound]
- % ILS (L1210 Leukemia; [4]): 62%
- Lifespan (L1210 Leukemia; [4]): 13 days

SMILES: Nc1nc(F)nc2c1ncn2[C@@H]1O[C@H](COC=O)[C@@H](O)[C@@H]1O [F-ara-A5'-formate, 9-(5-O-formyl-β-D-arabinofuranosyl)-2-fluoroadenine]
- levels of F-ara-A triphosphate in leukemic cells versus F-ara-A itself (L1210 cells): higher levels
- % ILS (L1210/0 Leukemia; [5]): 177%
- Cures (L1210/0 Leukemia; [5]): 3/10
- Median Lifespan (L1210/0 Leukemia; Table II, 150 mg/kg/dose, IP, QD 1-9 days, untreated control 9): 25 days
- Cures (L1210/0 Leukemia; [6]): three
- increase in lifespan (L1210/0 Leukemia; [6]): 177%
- lifespan and cures of mice implanted with leukemia L1210 cells (L1210 Leukemia): good increases in lifespan and some cures
- solubility [2]: water-soluble
- conversion to the parent drug in vivo [3]: converted to the parent drug in vivo

SMILES: Nc1nc(F)nc2c1ncn2[C@@H]1O[C@H](CO)[C@@H](O)[C@@H]1O [F-ara-A, 9-β-D-arabinofuranosyl-2-fluoroadenine, reference compound]
- levels of the triphosphate in L1210 versus ara-A+2'dCF (L1210 cells; near equimolar doses): higher levels
- solubility [2]: very insoluble

SMILES: Nc1nc(F)nc2c1ncn2[C@@H]1O[C@H](COP(=O)(O)O)[C@@H](O)[C@@H]1O [F-ara-AMP, 9-β-D-arabinofuranosyl-2-fluoroadenine 5'-phosphate]
- levels of F-ara-A triphosphate in leukemic cells versus F-ara-A itself (L1210 cells): higher levels
- lifespan and cures of mice implanted with leukemia L1210 cells (L1210 Leukemia): good increases in lifespan and some cures
- % ILS (L1210 Leukemia; [7]): 125%
- Cures (L1210 Leukemia; [7]): 3/10
- Lifespan (L1210 Leukemia; [7]): 18 days
- solubility [2]: water-soluble
- conversion to the parent drug in vivo [3]: converted to the parent drug in vivo

SMILES: Nc1ncnc2c1ncn2[C@@H]1O[C@H](CO)[C@@H](O)[C@@H]1O [ara-A, 9-β-D-arabinofuranosyl adenine, reference compound]
- effectiveness (L1210 Leukemia; optimal schedule, every 3 hours for 24 hours): not very effective
